Data published in the supplement of paper PMC10307832.

Tests used:
Test in all cases: relative viability (nuclei count vs DMSO), 5 days (fraction); higher = more cells survive
Imatinib + Dasatinib = compound: Cc1ccc(NC(=O)c2ccc(CN3CCN(C)CC3)cc2)cc1Nc1nccc(-c2cccnc2)n1 [Imatinib] + Cc1nc(Nc2ncc(C(=O)Nc3c(C)cccc3Cl)s2)cc(N2CCN(CCO)CC2)n1 [Dasatinib] (partner 0.075 µM)
Summary of the method: (§1)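 Each reported value is a median over duplicate plates. It expresses relative viability: treated-well nuclei count divided by vehicle-well nuclei count. Lung cancer cell lines in 1536-well plates were dosed by pin tool a day after seeding, alone with one drug or with a fixed anchor-drug dose plus five library-drug doses (not always all listed) in √10 steps, and nuclei were counted after 5 days.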

Imatinib + Alpelisib = compound: Cc1ccc(NC(=O)c2ccc(CN3CCN(C)CC3)cc2)cc1Nc1nccc(-c2cccnc2)n1 [Imatinib] + Cc1nc(NC(=O)N2CCC[C@H]2C(N)=O)sc1-c1ccnc(C(C)(C)C(F)(F)F)c1 [Alpelisib] (partner 2 µM)
Summary of the method: as §1

Imatinib + Olaparib = compound: Cc1ccc(NC(=O)c2ccc(CN3CCN(C)CC3)cc2)cc1Nc1nccc(-c2cccnc2)n1 [Imatinib] + O=C(c1cc(Cc2n[nH]c(=O)c3ccccc23)ccc1F)N1CCN(C(=O)C2CC2)CC1 [Olaparib] (partner 8 µM)
Summary of the method: as §1

Imatinib + Decitabine = compound: Cc1ccc(NC(=O)c2ccc(CN3CCN(C)CC3)cc2)cc1Nc1nccc(-c2cccnc2)n1 [Imatinib] + Nc1ncn([C@H]2C[C@H](O)[C@@H](CO)O2)c(=O)n1 [Decitabine] (partner 2 µM)
Summary of the method: as §1

Row | Cell Line | relative viability (Imatinib + Dasatinib; first compound 0.02 µM) | relative viability (Imatinib + Dasatinib; first compound 0.06325 µM) | relative viability (Imatinib + Dasatinib; first compound 0.2 µM) | relative viability (Imatinib + Dasatinib; first compound 0.6325 µM) | relative viability (Imatinib + Dasatinib; first compound 2 µM) | relative viability (Imatinib + Alpelisib; first compound 0.02 µM) | relative viability (Imatinib + Alpelisib; first compound 0.2 µM) | relative viability (Imatinib + Alpelisib; first compound 0.6325 µM) | relative viability (Imatinib + Alpelisib; first compound 2 µM) | relative viability (Imatinib + Olaparib; first compound 0.02 µM) | relative viability (Imatinib + Olaparib; first compound 0.06325 µM) | relative viability (Imatinib + Olaparib; first compound 0.2 µM) | relative viability (Imatinib + Olaparib; first compound 0.6325 µM) | relative viability (Imatinib + Olaparib; first compound 2 µM) | relative viability (Imatinib + Decitabine; first compound 0.02 µM) | relative viability (Imatinib + Decitabine; first compound 0.2 µM) | relative viability (Imatinib + Decitabine; first compound 0.6325 µM) | relative viability (Imatinib + Decitabine; first compound 2 µM) | relative viability (Imatinib + Alpelisib; first compound 0.06325 µM) | relative viability (Imatinib + Decitabine; first compound 0.06325 µM)
1 | H3255 | 0.443 | 0.346 | 0.351 | 0.361 | 0.258 | 0.815 | 0.747 | 0.645 | 0.618 | 0.576 | 0.572 | 0.565 | 0.566 | 0.612 | 0.605 | 0.544 | 0.633 | 0.504 | – | –
2 | NCI-H1395 | 0.438 | 0.347 | 0.381 | 0.393 | 0.418 | 1.03 | 1.08 | 1 | 0.999 | 0.455 | – | 0.405 | 0.428 | 0.409 | 0.754 | 0.656 | 0.678 | 0.69 | – | –
3 | NCI-H441 | 0.713 | 0.619 | 0.693 | 0.745 | 0.546 | 0.633 | 0.87 | 0.706 | 0.605 | 0.577 | 0.793 | 0.554 | 0.6 | 0.635 | 0.252 | 0.249 | 0.26 | 0.268 | 0.903 | 0.234
4 | NCI-H2405 | 0.22 | – | 0.203 | 0.217 | 0.192 | 0.922 | 0.823 | 0.643 | 0.95 | 0.933 | 0.947 | 0.919 | 0.875 | 0.922 | 0.707 | 0.848 | 0.724 | 0.722 | – | 0.636
5 | LOU-NH91 | 0.569 | 0.581 | 0.607 | 0.567 | 0.56 | 0.77 | 0.729 | 0.68 | 0.674 | 1.04 | 0.982 | – | 0.879 | 0.894 | 0.793 | 0.795 | 0.813 | 0.767 | 0.722 | 0.814
6 | NCI-H520 | 0.158 | 0.213 | 0.206 | 0.186 | 0.169 | 0.645 | 1.07 | 0.842 | 0.912 | 0.368 | 0.356 | 0.305 | 0.301 | 0.371 | 0.531 | 0.532 | 0.508 | 0.487 | 1.15 | 0.514
7 | NCI-H1437 | 0.444 | 0.309 | 0.409 | 0.25 | 0.334 | 1.13 | 1.02 | 0.981 | 0.94 | 0.692 | 0.703 | 0.719 | 0.686 | 0.604 | 0.587 | 0.597 | 0.629 | 0.578 | 1.16 | 0.664
8 | COR-L23 | 0.555 | 0.451 | 0.43 | 0.591 | 0.539 | 0.794 | 0.969 | 0.806 | 0.902 | 0.394 | 0.367 | 0.363 | 0.383 | 0.308 | 0.382 | 0.474 | 0.409 | 0.455 | 1.02 | 0.507
9 | NCI-H1975 | 0.426 | 0.262 | 0.38 | 0.371 | 0.259 | 0.61 | 0.775 | 0.621 | 0.553 | 0.756 | 0.815 | 0.947 | 0.803 | 0.712 | 0.365 | 0.369 | 0.38 | 0.365 | 0.721 | 0.373
10 | NCI-H1651 | 0.333 | 0.355 | 0.427 | 0.378 | 0.414 | 0.994 | 1.18 | 0.894 | 1.01 | 0.173 | 0.231 | 0.177 | 0.19 | 0.166 | 0.56 | 0.643 | 0.591 | 0.599 | 1.19 | 0.297
11 | NCI-H23 | 1.06 | 0.688 | 0.694 | 0.78 | 0.972 | 0.751 | 0.866 | 0.731 | 0.58 | 0.384 | 0.287 | 0.32 | 0.376 | 0.32 | 0.319 | 0.299 | 0.287 | 0.355 | – | 0.31
12 | LCLC-97TM1 | 0.926 | – | 0.875 | 0.81 | 0.86 | – | 0.236 | 0.231 | 0.266 | 0.539 | – | 0.269 | 0.419 | 0.33 | 0.208 | 0.253 | 0.216 | 0.226 | – | –
13 | HCC-15 | 0.722 | – | 0.668 | 0.594 | 0.598 | – | 0.883 | 0.814 | 0.885 | 0.773 | – | 0.719 | 0.791 | 0.742 | 0.605 | 0.638 | 0.677 | 0.524 | 0.853 | 0.598
14 | PC-3 [JPC-3] | 1.1 | – | 0.955 | 0.931 | 0.778 | 1.08 | 1.03 | 1.05 | 0.979 | 1.22 | – | – | 1.18 | 1.08 | 0.861 | – | 0.776 | 0.84 | – | –
15 | LU99A | 0.761 | 0.637 | 0.555 | 0.736 | 0.372 | 0.575 | 0.599 | 0.523 | 0.514 | 0.272 | 0.254 | 0.235 | 0.29 | 0.274 | 0.986 | 0.824 | 0.812 | 0.903 | 0.604 | 0.827
16 | NCI-H596 | 0.597 | 0.582 | 0.831 | 0.499 | 0.641 | 0.489 | 0.39 | 0.446 | 0.448 | 0.648 | 0.811 | 0.681 | 0.665 | 0.747 | 1.12 | 1.17 | – | 0.971 | 0.459 | 1.01
17 | HCC-827 | 0.287 | 0.269 | 0.239 | 0.151 | 0.272 | 0.987 | 1.05 | – | 1.01 | 0.741 | 0.724 | 0.762 | 0.639 | 0.628 | 0.31 | 0.311 | 0.36 | 0.307 | 0.861 | 0.32
